Molecular target: Neprilysin (Homo sapiens, UniProt P08473)
Test: In vitro inhibition of Neutral Endopeptidase

Chain of Neprilysin (P08473 whole entry): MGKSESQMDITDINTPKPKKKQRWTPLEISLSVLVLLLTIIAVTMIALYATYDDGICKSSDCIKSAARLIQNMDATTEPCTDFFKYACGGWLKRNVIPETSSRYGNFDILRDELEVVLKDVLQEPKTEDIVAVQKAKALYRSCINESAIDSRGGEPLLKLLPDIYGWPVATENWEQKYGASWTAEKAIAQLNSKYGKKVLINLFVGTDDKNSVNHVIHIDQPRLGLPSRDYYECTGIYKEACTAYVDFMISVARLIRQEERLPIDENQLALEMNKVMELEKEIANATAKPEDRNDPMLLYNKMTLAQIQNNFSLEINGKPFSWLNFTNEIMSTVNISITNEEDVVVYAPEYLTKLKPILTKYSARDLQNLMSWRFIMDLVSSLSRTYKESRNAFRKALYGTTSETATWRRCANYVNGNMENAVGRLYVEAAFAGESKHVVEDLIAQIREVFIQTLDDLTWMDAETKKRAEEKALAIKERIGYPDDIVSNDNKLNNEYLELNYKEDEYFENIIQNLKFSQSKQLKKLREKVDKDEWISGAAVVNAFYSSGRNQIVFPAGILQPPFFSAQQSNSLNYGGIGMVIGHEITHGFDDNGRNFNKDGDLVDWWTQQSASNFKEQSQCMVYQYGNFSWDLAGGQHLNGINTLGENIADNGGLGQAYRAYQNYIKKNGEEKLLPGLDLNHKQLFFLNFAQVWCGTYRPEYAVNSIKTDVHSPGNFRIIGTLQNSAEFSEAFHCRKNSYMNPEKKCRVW

Row | SMILES | IC50 [nM]
1 | COCCOCC(CC1(C(=O)N[C@H]2CC[C@@H](C(=O)O)CC2)CCCC1)C(=O)Oc1ccc2c(c1)CCC2 (some centres not stated) | 65
2 | O=C(O)C(COc1ccccc1)C[C@@H](Cc1ccc(-c2ccccc2)cc1)C(=O)NCc1nn[nH]n1 (some centres not stated) | 19
3 | O=C(O)C(COc1ccccc1)C[C@@H](Cc1ccc(-c2ccccc2)cc1)C(=O)Nc1nnn[nH]1 (some centres not stated) | 7.4
4 | CC(C[C@@H](Cc1ccc(-c2ccccc2)cc1)C(=O)Nc1nc(CC(=O)O)cs1)C(=O)O (some centres not stated) | 58
5 | O=C(O)Cc1csc(NC(=O)[C@H](Cc2ccc(-c3ccccc3)cc2)C[C@H](COc2ccccc2)C(=O)O)n1 | 3.3
6 | O=C(O)Cc1csc(NC(=O)[C@H](Cc2ccc(-c3ccccc3)cc2)C[C@@H](COc2ccccc2)C(=O)O)n1 | 0.69
7 | O=C(O)CNC(=O)[C@H](Cc1ccc(-c2ccccc2)cc1)C[C@@H](COc1ccccc1)C(=O)O | 3.2
8 | O=C(O)Cc1nnc(NC(=O)[C@H](Cc2ccc(-c3ccccc3)cc2)CC(COc2ccccc2)C(=O)O)s1 (some centres not stated) | 92
9 | O=C(O)CNC(=O)[C@H](Cc1ccc(-c2ccccc2)cc1)C[C@H](COc1ccccc1)C(=O)O | 5.9
10 | O=C(O)CC[C@@H](Cc1ccc(-c2ccccc2)cc1)C(=O)Nc1nc(CC(=O)O)cs1 | 122
11 | CCCCC(C[C@@H](Cc1ccc(-c2ccccc2)cc1)C(=O)Nc1nc(CC(=O)O)cs1)C(=O)O (single isomer, unassigned; isomer A) | 10
12 | CCCCC(C[C@@H](Cc1ccc(-c2ccccc2)cc1)C(=O)Nc1nc(CC(=O)O)cs1)C(=O)O (stereo in doubt) | 9.8
